The test concerns the target T1, GPR40 (Homo sapiens, UniProt O14842).
T1 construct: expressed in transfected cells; host or cells: HEK293 cells stably expressing GPR40 (Hygromycin selection)
Put plainly: IP1 accumulation assay in HEK293 cells stably expressing GPR40. In kind it is cell-based. Put shortly:
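HEK293 cells stably expressing human GPR40 were incubated with compounds (10-point, 3-fold dilution series) for 2 h at 37 °C, then IP1 was detected by HTRF (665/615 nm ratio). Effect was normalised to DMSO blank and AMG-1638 as 100%, and EC50 was derived from dose curves.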

Where [1] appears, read: IP1 accumulation, HEK293 cells stably expressing GPR40, 2 hours at 37° C., % effect relative to AMG-1638, table of Biological Example 1.
Setting [2] is: Tables A-1a to A-7b (structure-property relationship), obtained by methods of Biological Example 1.

The structures appear in SMILES notation.

T1 sequence (O14842 whole entry): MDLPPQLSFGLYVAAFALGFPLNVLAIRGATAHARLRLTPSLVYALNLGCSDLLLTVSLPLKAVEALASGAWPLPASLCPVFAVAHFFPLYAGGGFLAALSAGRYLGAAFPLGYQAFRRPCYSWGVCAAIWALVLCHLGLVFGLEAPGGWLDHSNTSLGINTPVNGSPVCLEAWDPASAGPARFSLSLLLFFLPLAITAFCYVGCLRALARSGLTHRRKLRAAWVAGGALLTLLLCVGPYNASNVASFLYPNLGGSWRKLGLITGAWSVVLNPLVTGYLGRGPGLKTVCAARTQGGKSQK

On to `COc1ccc(F)c(-c2ccc(COc3cccc([C@@H](CC(=O)O)C4CC4)c3)cc2CC(C)(C)Cn2cc(CCCCCCCCCCCCCCCC(=O)NCCC[N+](C)(CC(=O)[O-])CC(=O)O)nn2)c1` (stereo partly drawn) [Example 123], for which a half-maximal effect under setting [1] (EC50) was put at 32.7 nM.

As for `COc1ccc(C(=O)N(CC(C)(C)CCn2cc(CCCCCCCCCC(=O)NCCCN(CC(=O)O)CC(=O)O)nn2)c2cccc(C)n2)c(N2CCC(COc3cc([C@@H](CC(=O)O)C4CC4)ccn3)CC2)c1` [Example 124], the EC50 reads like this: under setting [1], 226 nM; under setting [2], 226 nM.

Regarding `COc1ccc(C(=O)N(CC(C)(C)CCn2cc(CCCCCCCCCC(=O)NCCC[N+](C)(CC(=O)[O-])CC(=O)O)nn2)c2cccc(C)n2)c(N2CCC(COc3cc([C@@H](CC(=O)O)C4CC4)ccn3)CC2)c1` (stereo partly drawn) [Example 125], the EC50 under setting [1] was 617 nM and the EC50 under setting [2] was 617 nM.

`COc1ccc(C(=O)N(CC(C)(C)CCn2cc(CCCCCCCCCCCC(=O)NCCCN(CC(=O)O)CC(=O)O)nn2)c2cccc(C)n2)c(N2CCC(COc3cc([C@@H](CC(=O)O)C4CC4)ccn3)CC2)c1` [Example 126]: the EC50 was found to be 5.81 nM under setting [1] and 5.81 nM under setting [2].

For the compound `COc1ccc(C(=O)N(CC(C)(C)CCn2cc(CCCCCCCCCCCC(=O)NCCC[N+](C)(CC(=O)[O-])CC(=O)O)nn2)c2cccc(C)n2)c(N2CCC(COc3cc([C@@H](CC(=O)O)C4CC4)ccn3)CC2)c1` (stereo partly drawn) [Example 127], the EC50 runs as follows: under setting [1], 6.36 nM; under setting [2], 6.36 nM.

Consider `COc1ccc(C(=O)N(CC(C)(C)CCn2cc(CCCCCCCCCCCCCC(=O)NCCCN(CC(=O)O)CC(=O)O)nn2)c2cccc(C)n2)c(N2CCC(COc3cc([C@@H](CC(=O)O)C4CC4)ccn3)CC2)c1` [Example 128], for which the EC50 amounted to 1.33 nM under setting [1] and 1.33 nM under setting [2].

As to `COc1ccc(C(=O)N(CC(C)(C)CCn2cc(CCCCCCCCCCCCCC(=O)NCCC[N+](C)(CC(=O)[O-])CC(=O)O)nn2)c2cccc(C)n2)c(N2CCC(COc3cc([C@@H](CC(=O)O)C4CC4)ccn3)CC2)c1` (stereo partly drawn) [Example 129], the EC50 is, setting by setting: under setting [1], 0.88 nM; under setting [2], 0.88 nM.

As for `COc1ccc(C(=O)N(CC(C)(C)CCn2cc(CCCCCCCCCCCCCCC(=O)NCCCN(CC(=O)O)CC(=O)O)nn2)c2cccc(C)n2)c(N2CCC(COc3cc([C@@H](CC(=O)O)C4CC4)ccn3)CC2)c1` [Example 130], the EC50 is 1.25 nM under setting [1] and 1.25 nM under setting [2].

Regarding `COc1ccc(C(=O)N(CC(C)(C)CCn2cc(CCCCCCCCCCCCCCC(=O)NCCC[N+](C)(CC(=O)[O-])CC(=O)O)nn2)c2cccc(C)n2)c(N2CCC(COc3cc([C@@H](CC(=O)O)C4CC4)ccn3)CC2)c1` (stereo partly drawn) [Example 131], the EC50 under setting [1] amounted to 0.38 nM and the EC50 under setting [2] was determined as 0.38 nM.

`COc1ccc(C(=O)N(CC(C)(C)CCn2cc(CCCCCCCCCCCCCCCCC(=O)NCCCN(CC(=O)O)CC(=O)O)nn2)c2cccc(C)n2)c(N2CCC(COc3cc([C@@H](CC(=O)O)C4CC4)ccn3)CC2)c1` [Example 132] registered an EC50 under setting [1] of 0.19 nM and an EC50 under setting [2] of 0.19 nM.

On to `COc1ccc(C(=O)N(CC(C)(C)CCn2cc(CCCCCCCCCCCCCCCCC(=O)NCCC[N+](C)(CC(=O)[O-])CC(=O)O)nn2)c2cccc(C)n2)c(N2CCC(COc3cc([C@@H](CC(=O)O)C4CC4)ccn3)CC2)c1` (stereo partly drawn) [Example 133], for which the concentration for a half-maximal effect (EC50) is 0.08 nM under setting [1] and 0.08 nM under setting [2].

As for `COc1ccc(F)c(-c2ccc(COc3cccc([C@@H](CC(=O)O)C4CC4)c3)cc2C(C)(C)c2cn(CCCCCCCCCC(=O)NCCN(CCC(=O)NCCN)CCC(=O)NCCN)nn2)c1` [Example 134], it took 3600 nM to reach a half-maximal effect under setting [1] (EC50).

With `COc1ccc(F)c(-c2ccc(COc3cccc([C@@H](CC(=O)O)C4CC4)c3)cc2CC(C)(C)Cc2cn(CCCCCCCCCC(=O)NCCN(CCC(=O)NCCN)CCC(=O)NCCN)nn2)c1` [Example 135], the EC50 is 3700 nM under setting [1] and more than 3700 nM under setting [2].

Under setting [1], `COc1ccc(F)c(-c2ccc(COc3cccc([C@@H](CC(=O)O)C4CC4)c3)cc2OC(C)(C)Cn2cc(CCCCCCCCC(=O)NCCN(CCC(=O)NCCN)CCC(=O)NCCN)nn2)c1` [Example 136] displayed an EC50 of 1230 nM.

As to `COc1ccc(F)c(-c2ccc(COc3cccc([C@@H](CC(=O)O)C4CC4)c3)cc2OC(C)(C)Cn2cc(CCCCCCCCCCC(=O)NCCN(CCC(=O)NCCN)CCC(=O)NCCN)nn2)c1` [Example 137], the EC50 under setting [1] turned out to be 2600 nM.

As for `COc1ccc(F)c(-c2ccc(COc3cccc([C@@H](CC(=O)O)C4CC4)c3)cc2OC(C)(C)Cn2cc(CCCCCCCCCCCCCCC(=O)NCCN(CCC(=O)NCCN)CCC(=O)NCCN)nn2)c1` [Example 138], a half-maximal response under setting [1] (EC50) required 6.87 nM.

`COc1ccc(F)c(-c2ccc(COc3cccc([C@@H](CC(=O)O)C4CC4)c3)cc2OC(C)(C)Cn2cc(CCCCCCCCCCCCCCC(=O)NCC[N+](C)(CCC(=O)NCCN)CCC(=O)NCCN)nn2)c1` [Example 139] registered an EC50 under setting [1] of 8.54 nM.

Compound `COc1ccc(F)c(-c2ccc(COc3cccc([C@@H](CC(=O)O)C4CC4)c3)cc2OC(C)(C)Cn2cc(CCCCCCCCC(=O)NCC[N+](C)(CCC(=O)NCCN)CCC(=O)NCCN)nn2)c1` [Example 140] came in with an EC50 under setting [1] of more than 10000 nM.

For the compound `COc1ccc(F)c(-c2ccc(COc3cccc([C@@H](CC(=O)O)C4CC4)c3)cc2OC(C)(C)Cn2cc(CCCCCCCCCCC(=O)NCC[N+](C)(CCC(=O)NCCN)CCC(=O)NCCN)nn2)c1` [Example 141], the EC50 under setting [1] stood at 1650 nM.

`COc1ccc(F)c(-c2ccc(COc3cccc([C@@H](CC(=O)O)C4CC4)c3)cc2OC(C)(C)Cn2cc(CCCCCCCCCCCCCC(=O)NCC[N+](C)(CCC(=O)NCCN)CCC(=O)NCCN)nn2)c1` [Example 142] registered an EC50 under setting [1] of 30.7 nM.

Regarding `COc1ccc(F)c(-c2ccc(COc3cccc([C@@H](CC(=O)O)C4CC4)c3)cc2C(C)(C)c2cn(CCCCCCCCCC(=O)NCC[N+](C)(CCC(=O)NCCN)CCC(=O)NCCN)nn2)c1` [Example 143], the EC50 under setting [1] was more than 10000 nM.

As for `COc1ccc(F)c(-c2ccc(COc3cccc([C@@H](CC(=O)O)C4CC4)c3)cc2CC(C)(C)Cn2cc(CCCCCCCCC(=O)NCC[N+](C)(CCC(=O)NCCN)CCC(=O)NCCN)nn2)c1` [Example 144], the EC50 stood at 5170 nM under setting [1] and 5170 nM under setting [2].

Compound `C[C@H](C(=O)O)[C@H](c1ccc2c(c1)O[C@@H](C1CCN(Cc3cc(-n4cc(CCCCCCCCCCCCCCCCCC(=O)NCCCN(C)CC(=O)NCCN)nn4)ccc3OC(F)(F)F)CC1)CC2)C1CC1` [Example 145] had an EC50 under setting [1] of 0.19 nM.

On to `C[C@H](C(=O)O)[C@H](c1ccc2c(c1)O[C@@H](C1CCN(Cc3cc(-n4cc(CCCCCCCCCCCCCCCCCC(=O)NCCC[N+](C)(C)CC(=O)NCCN)nn4)ccc3OC(F)(F)F)CC1)CC2)C1CC1` [Example 146], for which a half-maximal effect under setting [1] (EC50) was put at 0.12 nM.

Under setting [1], `COc1ccc(F)c(-c2ccc(COc3cccc([C@@H](CC(=O)O)C4CC4)c3)cc2CC(C)(C)Cn2cc(CCCCCCCCCCCCCCCCCC(=O)NCCCN(C)CC(=O)NCCN)nn2)c1` [Example 147] showed an EC50 of 0.62 nM.

`COc1ccc(F)c(-c2ccc(COc3cccc([C@@H](CC(=O)O)C4CC4)c3)cc2CC(C)(C)Cn2cc(CCCCCCCCCCCCCCCCCC(=O)NCCC[N+](C)(C)CC(=O)NCCN)nn2)c1` [Example 148] displayed an EC50 under setting [1] of 0.43 nM.

Take `COc1ccc(C(=O)N(CC(C)(C)CCCCCCn2cc(CCCCCCCCCCCCCCCCCC(=O)NCCCN(C)CC(=O)NCCN)nn2)c2cccc(C)n2)c(N2CCC(COc3cc([C@@H](CC(=O)O)C4CC4)ccn3)CC2)c1` [Example 149]: the EC50 under setting [1] amounted to 0.09 nM.

For the compound `COc1ccc(C(=O)N(CC(C)(C)CCn2cc(CCCCCCCCCCCCCCCCCC(=O)NCCCN(C)CC(=O)NCCN)nn2)c2cccc(C)n2)c(N2CCC(COc3cc([C@@H](CC(=O)O)C4CC4)ccn3)CC2)c1` [Example 150], the EC50 under setting [1] turned out to be 0.07 nM.

Take `COc1ccc(C(=O)N(CC(C)(C)CCn2cc(CCCCCCCCCCCCCCCCCC(=O)NCCC[N+](C)(C)CC(=O)NCCN)nn2)c2cccc(C)n2)c(N2CCC(COc3cc([C@@H](CC(=O)O)C4CC4)ccn3)CC2)c1` [Example 151]: the EC50 under setting [1] is 0.05 nM.

`COc1ccc(F)c(-c2ccc(COc3cccc([C@@H](CC(=O)O)C4CC4)c3)cc2CC(C)(C)Cn2cc(CCCCCCCCCCCCCC(=O)NCCCN(CC(=O)NCCN)CC(=O)NCCN)nn2)c1` [Example 152] yielded an EC50 under setting [1] of 34.4 nM.

`COc1ccc(F)c(-c2ccc(COc3cccc([C@@H](CC(=O)O)C4CC4)c3)cc2CC(C)(C)Cn2cc(CCCCCCCCCCCCCCCC(=O)NCCCN(CC(=O)NCCN)CC(=O)NCCN)nn2)c1` [Example 153] showed an EC50 under setting [1] of 6.64 nM.

Under setting [1], `COc1ccc(F)c(-c2ccc(COc3cccc([C@@H](CC(=O)O)C4CC4)c3)cc2CC(C)(C)Cn2cc(CCCCCCCCCCCCCCCCCC(=O)NCCCN(CC(=O)NCCN)CC(=O)NCCN)nn2)c1` [Example 154] registered an EC50 of 1.04 nM.

Compound `COc1ccc(F)c(-c2ccc(COc3cccc([C@@H](CC(=O)O)C4CC4)c3)cc2CC(C)(C)Cn2cc(CCCCCCCCCCCCCC(=O)NCCC[N+](C)(CC(=O)NCCN)CC(=O)NCCN)nn2)c1` [Example 155] showed an EC50 under setting [1] of 18.8 nM.

In the case of `COc1ccc(F)c(-c2ccc(COc3cccc([C@@H](CC(=O)O)C4CC4)c3)cc2CC(C)(C)Cn2cc(CCCCCCCCCCCCCCCC(=O)NCCC[N+](C)(CC(=O)NCCN)CC(=O)NCCN)nn2)c1` [Example 156], under setting [1], the EC50 worked out at 2.53 nM.

Compound `COc1ccc(F)c(-c2ccc(COc3cccc([C@@H](CC(=O)O)C4CC4)c3)cc2CC(C)(C)Cn2cc(CCCCCCCCCCCCCCCCCC(=O)NCCC[N+](C)(CC(=O)NCCN)CC(=O)NCCN)nn2)c1` [Example 157] registered an EC50 under setting [1] of 0.54 nM.

`COc1ccc(F)c(-c2ccc(COc3cccc([C@@H](CC(=O)O)C4CC4)c3)cc2C(C)(C)Cn2cc(CCCCCCCCCCCCCCCCCC(=O)NCC[N+](C)(CCC(=O)NCCN)CCC(=O)NCCN)nn2)c1` [Example 158] gave a 50% effective concentration (EC50) under setting [1] of 8.97 nM.

By EC50 is commonly meant the concentration giving half of the maximal effect. The low end stands for an effect from little substance, the high end for a need for much substance.

(Values after patent US20250223281A1, “ANTIDIABETIC COMPOUNDS AND COMPOSITIONS” (REZUBIO PHARMACEUTICALS CO., LTD, priority 2022, published 2025).)
